# PMC11509018, “Evaluation of the Role of Tanshinone I in an In Vitro System of Charcot-Marie-Tooth Disease Type 2N” (International Journal of Molecular Sciences, 2024)
# Target: T1, AlaRS^R329H (Homo sapiens, UniProt P49588, R329H)
# T1 construct: made in house; host or cells: E. coli BL21 (DE3), pET-21a
# T1 sequence (P49588 1-968 R329H): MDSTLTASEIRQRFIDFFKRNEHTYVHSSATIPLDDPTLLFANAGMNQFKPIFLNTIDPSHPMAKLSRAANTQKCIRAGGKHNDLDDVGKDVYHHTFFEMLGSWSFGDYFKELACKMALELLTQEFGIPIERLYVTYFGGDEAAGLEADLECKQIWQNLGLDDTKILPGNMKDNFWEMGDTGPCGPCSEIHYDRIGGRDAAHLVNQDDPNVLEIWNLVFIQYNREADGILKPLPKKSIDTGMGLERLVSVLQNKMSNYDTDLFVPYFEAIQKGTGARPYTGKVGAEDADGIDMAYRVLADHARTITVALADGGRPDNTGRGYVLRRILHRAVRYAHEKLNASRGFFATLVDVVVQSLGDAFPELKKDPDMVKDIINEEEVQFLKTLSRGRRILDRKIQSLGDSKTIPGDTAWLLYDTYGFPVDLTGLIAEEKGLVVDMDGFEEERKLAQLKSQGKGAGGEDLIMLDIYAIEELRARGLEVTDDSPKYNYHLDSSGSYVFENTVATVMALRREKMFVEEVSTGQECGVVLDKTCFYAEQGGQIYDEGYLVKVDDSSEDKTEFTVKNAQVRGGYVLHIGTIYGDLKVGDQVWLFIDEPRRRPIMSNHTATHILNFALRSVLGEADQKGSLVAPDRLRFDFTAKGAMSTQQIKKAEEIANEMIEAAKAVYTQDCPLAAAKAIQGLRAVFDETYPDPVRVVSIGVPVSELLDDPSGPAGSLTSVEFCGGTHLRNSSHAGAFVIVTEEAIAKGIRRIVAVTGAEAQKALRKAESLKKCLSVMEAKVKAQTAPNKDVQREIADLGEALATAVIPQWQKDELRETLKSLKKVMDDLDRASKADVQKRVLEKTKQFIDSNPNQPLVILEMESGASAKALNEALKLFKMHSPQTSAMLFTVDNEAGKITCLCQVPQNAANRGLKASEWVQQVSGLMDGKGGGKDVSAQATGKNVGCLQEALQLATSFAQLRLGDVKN
# Assay: Biolayer interferometry (BLI)
# Format: binding
# Conditions: immobilized AlaRS^R329H, 40, 20, 10, 5, 2.5 μM, mean ± SD, triplicate
# Source text: To quantitatively analyze the binding affinity between the small molecules and the CMT mutant proteins, we performed BLI analysis on the selected candidates. BLI offers direct measurements of drug–protein binding kinetics, including key parameters such as the equilibrium dissociation constant (KD), association rate (Kon), and dissociation rate (Koff). This analysis provided key insights into the binding affinities of the four small molecules with the mutant protein AlaRS^R329H. […] To further quantify the binding of small molecules to mutant proteins, binding experiments with AlaRS^R329H proteins and small molecules were conducted using an Octet R8 system (ForteBio, Fremont, CA, USA). Purified His-tagged AlaRS^R329H proteins (500 μg/mL) were captured on Ni-NTA biosensors (ForteBio, Fremont, CA, USA), achieving a saturation response of 4–5 nm after 300 s. The biosensors were then transferred to Octet buffer (PBS with 0.01% Tween 20) for 180 s to remove loosely bound, nonspecific proteins and to establish a stable baseline. Following this, the sensors were immersed in diluted Tanshinone I (2.5–100 μM in assay buffer) for 120 s to record the association signal, and then transferred back into Octet buffer to monitor the dissociation signal for 120 s. Reference wells containing buffer instead of Tanshinone I were included to correct for baseline shifts. Additionally, a parallel set of Ni-NTA sensors in buffer served as negative reference controls to account for nonspecific binding of the compounds to the biosensor surface. The data were processed using a double reference subtraction protocol to eliminate nonspecific signals, background noise, and signal drifts caused by biosensor variability. All assays were performed in 96-well black plates with a total volume of 200 μL per well at 30 °C. Data analysis, including correction and curve fitting, was carried out using Octet® Analysis Studio 12.2.2.26. The experiment was repeated three times.
structure (smiles),measurement,value
Cc1coc2c1C(=O)C(=O)c1c-2ccc2c(C)cccc12 [Tanshinone I],Kd,5.1 ± 1.9 µM
